US5817669A, “Compounds, processes for the preparation thereof and anti-tumor agents” (Dainippon Pharmaceutical Co., Ltd., priority 1994, dated 1998)
Where two headings read alike, the source gives them in different places.

Legend:
[1] = tested on: murine P388 lymphocytic leukemia cells; test: In vitro anti-tumor activity against murine P388 lymphocytic leukemia cells (MTT, 72 h); type: cell-based; conditions: Mus musculus; murine P388 cells, 72 h, MTT; read-out: IC50 (50% proliferation inhibitory concentration)
In short: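 MTT assay, 72 h exposure; formazan dissolved in DMSO after centrifugation and supernatant removal. Absorbance read at 570 nm with 690 nm reference. IC50 (μg/ml) by least squares.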

HMV2 human melanoma = test: In vitro anti-tumor activity against HMV-2 human melanoma (MTT); type: cell-based; conditions: HMV-2, 72 h, MTT, read-out: IC50
In short: (§1)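 500–2,000 cells/well, 20 h preculture 37° C/5% CO2; compound 72 h; MTT (5 mg/ml) 4 h; supernatant aspirated, formazan dissolved in DMSO.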

C33A human cervix cancer = test: In vitro anti-tumor activity against C-33A human cervix cancer (MTT); type: cell-based; conditions: C-33A, 72 h, MTT, read-out: IC50
In short: as §1

[2] = tested on: murine P388 lymphocytic leukemia cells; test: Increases in life span of mice implanted with murine P388 lymphocytic leukemia cells; type: in vivo, SLC: BDF1 mice; conditions: Mus musculus, P388, ip, 720 h, ip
[3] = tested on: human cancer cells (KB, MX-1, WiDr, HMV-2, LX-1) implanted in nude mice; test: Growth inhibition of human cancer cells implanted in nude mice (Test Examples 5 to 9); type: in vivo, human cancer cells in BALB/c nude mice; conditions: 50 mg/kg, FIGS. 1-9 (cell line not stated)
Experimental: In the following Test examples 5 to 9, human cancer cells were implanted in nude mice, to which test compounds dissolved in an aqueous solution containing NaOH were administered, and, thus, the degree of growth inhibition of cancer cells was observed.
FIGS. 1-9 show the variation with the lapse of days of IR.
FIGS. 10-14 show the relation between tumor weight and the lapse of days in the case where Compound 1--1 was used in Test examples 5-9. Vertical axis corresponds to tumor weight, and horizontal axis corresponds to the days which passed after the start of administration. Tumor weight was estimated from tumor diameter. The term Control in FIGS. 10-14 means tumor weight variation with days in nude mice to which, although cancer cells had been implanted, no test compounds had been administered.
In the following, there is explained schedule of administration of test compounds in nude mice. After days of × in number have passed from implantation of human cancer cells in nude mice, test compounds are intraperitoneally (ip) administered for y days, followed by wash-out periods of days of z in number. Thereafter, test compounds are administered again for y days. In this case, the cycle of administration (y days) and discontinuation (z days) is called "course". Such a schedule is denoted by marks as follows:
[(x) (y) (z) (course) (ip)]
These marks are explained below with an example. […]

[4] = NCI criterion, read-out: Evaluation
[5] = days 1 and 5, in solution, read-out: ILS (%) (in solution)
[6] = days 1 and 5, in suspension, read-out: ILS (%) (in suspension)

Work on `CN[C@@H]1CN(c2ccc3c(=O)c(C(=O)O)cn(-c4nccs4)c3n2)C[C@H]1OC.Cl` (relative stereo) [Compound 1-1, 1,4-dihydro-7-(trans-3-methoxy-4-methylamino-1-pyrrolidinyl)-4-oxo-1-(2-thiazolyl)-1,8-naphthyridine-3-carboxylic acid hydrochloride] yielded an IC50 [1] of 0.0107 µg/mL, an IC50 (HMV2 human melanoma) of 0.131 µg/mL and an IC50 (C33A human cervix cancer) of 0.137 µg/mL. For the same compound, the ILS at 0.78 mg/kg [2, 4] was 20 to 74%, the ILS at 1.56 mg/kg [2, 4] was 20 to 74% and the ILS at 3.13 mg/kg [2, 4] was > 75%. For the same compound, the ILS at 6.25 mg/kg [2, 4] was > 75%, the ILS at 12.5 mg/kg [2, 4] was > 75% and the ILS at 25 mg/kg [2, 4] was > 75%. The ILS at 50 mg/kg [2, 4] was > 75%, the ILS at 0.78 mg/kg [2, 5] was 50% and the ILS at 1.56 mg/kg [2, 5] was 63%. For the same compound, the ILS at 3.13 mg/kg [2, 5] was 100%, the ILS at 3.13 mg/kg [2, 6] was 88% and the ILS at 6.25 mg/kg [2, 5] was 125%. The ILS at 12.5 mg/kg [2, 5] was 150%, the ILS at 12.5 mg/kg [2, 6] was 175% and the ILS at 25 mg/kg [2, 5] was 200%. The ILS at 50 mg/kg [2, 5] was > 275%, the “Tumor Growth Inhibition Rate IR % on the last day of observation” value [3] was 91% and the solubility (physchem; 0.1 m phosphate buffer, pH 7.2, aqueous buffer) was 20.1 mg/mL. It also gave a solubility (physchem; water) of 2.9 mg/mL.
